Tests used:
LtP = assay: Cellular oxygen consumption of LtP (OxoPlates); type: cell-based, Leishmania tarentolae; conditions: 200 µM compound, 140 × 10^6 cells/mL
Excerpt: (§1) The experimental data so far indicate that in more complex EP not only the endoperoxyl group contributes to its pharmacological actions. Therefore, mitochondria present in the parasites but also in the host cells could be either a trigger for activating pharmacological actions of these compounds or a target of EP-derived radicals generated at other sites in the cell. In a subsequent experiment, we tested the influence of AcEP and non-endoperoxidic analogs (Ac) on the mitochondrial oxygen consumption in LtP and J774 macrophages (Figure 9).
(§2) Oxygen consumption rates of LtP in complete BHI culture medium and J774 in PBS-gluc treated with AcEPs were measured using round-bottomed OxoPlates (OP96U, Precision Sensing GmbH, Regensburg, Germany). […] Then, the fluorescence of both calibration media was measured at a microplate reader (Perkin Elmer EnSpire, Rodgau, Germany) in a dual kinetic mode, using an excitation wavelength of 540 nm for both dyes and emission wavelengths of 650 nm for the indicator dye and 590 nm for the reference dye. The ratio of both fluorescence intensities (IR) was calculated for each well and averaged giving the two calibration constants k0 (oxygen-free) or k100 (air-saturated). […] Both fluorescence intensities of each well were determined in 5 min intervals over up to 40 min. Each compound was measured in quadruplicates. […]

J774 macrophages = assay: Cellular oxygen consumption of J774 cells (OxoPlates); type: cell-based, murine; conditions: 200 µM compound, 2 × 10^6 cells/mL
Excerpt: as §1, §2

| Compound | Inhibition of mitochondrial oxygen consumption in LtP (LtP) | Inhibition of mitochondrial oxygen consumption in J774 macrophages (J774 macrophages) |
| --- | --- | --- |
| CC(C)(C)c1ccc2c(-c3cccnc3)c3ccccc3c(-c3cccnc3)c2c1 [mPyBuAc] | even stronger inhibition |  |
| CC(C)(C)c1ccc2c(c1)C1(c3cccnc3)OOC2(c2cccnc2)c2ccccc21 (stereo not drawn) [mPyBuAcEP] | interfered strongly | more moderate |

Reference: publication PMC9612231, “Antileishmanial Anthracene Endoperoxides: Efficacy In Vitro, Mechanisms and Structure-Activity Relationships” (Molecules, 2022)
